Laboratory results from ChEMBL document CHEMBL5724914, “Linking interpersonal differences in gut microbiota composition and drug biotransformation activity” (2024).

Assay: (§1) The drug is tested on WLS-069 corresponding to human gut metagenome with ENA study accession number: PRJEB37062 and ENA sample accession number: ERS12561748 for biotransformation under anaerobic condition. The drug concentrations were measured over 9 timepoints collected between 0 and 24 hours of incubation by liquid-chromatography-coupled mass spectrometry (LC–MS)
Conditions: 2 µM
Note: call rule not given here.

Bacterial Biotransformation | Compound
Compound metabolized | CCCCC(=O)O[C@]1(C(=O)CO)[C@@H](C)C[C@H]2[C@@H]3CCC4=CC(=O)C=C[C@]4(C)[C@@]3(F)[C@@H](O)C[C@@]21C [BETAMETHASONE VALERATE]
Compound NOT metabolized | CC#CCn1c(N2CCC[C@@H](N)C2)nc2c1c(=O)n(Cc1nc(C)c3ccccc3n1)c(=O)n2C [LINAGLIPTIN]
Compound metabolized | CCOC(=O)C1=C(C)NC(C)=C(C(=O)OC)C1c1cccc([N+](=O)[O-])c1 (stereo not drawn) [NITRENDIPINE]

Assay: as §1, with “WLS-039” for “WLS-069”, “ERS12561746” for “ERS12561748”
Conditions: 2 µM

Bacterial Biotransformation | Compound
Compound metabolized | CCCCC(=O)O[C@]1(C(=O)CO)[C@@H](C)C[C@H]2[C@@H]3CCC4=CC(=O)C=C[C@]4(C)[C@@]3(F)[C@@H](O)C[C@@]21C [BETAMETHASONE VALERATE]
Compound metabolized | CC#CCn1c(N2CCC[C@@H](N)C2)nc2c1c(=O)n(Cc1nc(C)c3ccccc3n1)c(=O)n2C [LINAGLIPTIN]
Compound metabolized | CCOC(=O)C1=C(C)NC(C)=C(C(=O)OC)C1c1cccc([N+](=O)[O-])c1 (stereo not drawn) [NITRENDIPINE]

Assay: as §1, with “WLS-038” for “WLS-069”, “ERS12561745” for “ERS12561748”
Conditions: 2 µM

Bacterial Biotransformation | Compound
Compound metabolized | CCCCC(=O)O[C@]1(C(=O)CO)[C@@H](C)C[C@H]2[C@@H]3CCC4=CC(=O)C=C[C@]4(C)[C@@]3(F)[C@@H](O)C[C@@]21C [BETAMETHASONE VALERATE]
Compound NOT metabolized | CC#CCn1c(N2CCC[C@@H](N)C2)nc2c1c(=O)n(Cc1nc(C)c3ccccc3n1)c(=O)n2C [LINAGLIPTIN]
Compound metabolized | CCOC(=O)C1=C(C)NC(C)=C(C(=O)OC)C1c1cccc([N+](=O)[O-])c1 (stereo not drawn) [NITRENDIPINE]

Conditions: human gut metagenome, 24 h, 2 µM

Bacterial Biotransformation | Compound
Compound NOT metabolized | CCCCC(=O)O[C@]1(C(=O)CO)[C@@H](C)C[C@H]2[C@@H]3CCC4=CC(=O)C=C[C@]4(C)[C@@]3(F)[C@@H](O)C[C@@]21C [BETAMETHASONE VALERATE]
Compound NOT metabolized | CC#CCn1c(N2CCC[C@@H](N)C2)nc2c1c(=O)n(Cc1nc(C)c3ccccc3n1)c(=O)n2C [LINAGLIPTIN]
Compound metabolized | CCOC(=O)C1=C(C)NC(C)=C(C(=O)OC)C1c1cccc([N+](=O)[O-])c1 (stereo not drawn) [NITRENDIPINE]

Conditions: human gut metagenome, 24 h, 2 µM
Remark: another data set of the same source

Bacterial Biotransformation | Compound
Compound NOT metabolized | CCCCC(=O)O[C@]1(C(=O)CO)[C@@H](C)C[C@H]2[C@@H]3CCC4=CC(=O)C=C[C@]4(C)[C@@]3(F)[C@@H](O)C[C@@]21C [BETAMETHASONE VALERATE]
Compound NOT metabolized | CC#CCn1c(N2CCC[C@@H](N)C2)nc2c1c(=O)n(Cc1nc(C)c3ccccc3n1)c(=O)n2C [LINAGLIPTIN]
Compound metabolized | CCOC(=O)C1=C(C)NC(C)=C(C(=O)OC)C1c1cccc([N+](=O)[O-])c1 (stereo not drawn) [NITRENDIPINE]

Conditions: human gut metagenome, 24 h, 2 µM
Remark: another data set of the same source

Bacterial Biotransformation | Compound
Compound metabolized | CCCCC(=O)O[C@]1(C(=O)CO)[C@@H](C)C[C@H]2[C@@H]3CCC4=CC(=O)C=C[C@]4(C)[C@@]3(F)[C@@H](O)C[C@@]21C [BETAMETHASONE VALERATE]
Compound NOT metabolized | CC#CCn1c(N2CCC[C@@H](N)C2)nc2c1c(=O)n(Cc1nc(C)c3ccccc3n1)c(=O)n2C [LINAGLIPTIN]
Compound metabolized | CCOC(=O)C1=C(C)NC(C)=C(C(=O)OC)C1c1cccc([N+](=O)[O-])c1 (stereo not drawn) [NITRENDIPINE]

Conditions: human gut metagenome, 24 h, 2 µM
Remark: another data set of the same source

Bacterial Biotransformation | Compound
Compound NOT metabolized | CCCCC(=O)O[C@]1(C(=O)CO)[C@@H](C)C[C@H]2[C@@H]3CCC4=CC(=O)C=C[C@]4(C)[C@@]3(F)[C@@H](O)C[C@@]21C [BETAMETHASONE VALERATE]
Compound NOT metabolized | CC#CCn1c(N2CCC[C@@H](N)C2)nc2c1c(=O)n(Cc1nc(C)c3ccccc3n1)c(=O)n2C [LINAGLIPTIN]
Compound metabolized | CCOC(=O)C1=C(C)NC(C)=C(C(=O)OC)C1c1cccc([N+](=O)[O-])c1 (stereo not drawn) [NITRENDIPINE]

Conditions: human gut metagenome, 24 h, 2 µM
Remark: another data set of the same source

Bacterial Biotransformation | Compound
Compound metabolized | CCCCC(=O)O[C@]1(C(=O)CO)[C@@H](C)C[C@H]2[C@@H]3CCC4=CC(=O)C=C[C@]4(C)[C@@]3(F)[C@@H](O)C[C@@]21C [BETAMETHASONE VALERATE]
Compound metabolized | CCOC(=O)C1=C(C)NC(C)=C(C(=O)OC)C1c1cccc([N+](=O)[O-])c1 (stereo not drawn) [NITRENDIPINE]

Conditions: human gut metagenome, 24 h, 2 µM
Remark: another data set of the same source

Bacterial Biotransformation | Compound
Compound metabolized | CCCCC(=O)O[C@]1(C(=O)CO)[C@@H](C)C[C@H]2[C@@H]3CCC4=CC(=O)C=C[C@]4(C)[C@@]3(F)[C@@H](O)C[C@@]21C [BETAMETHASONE VALERATE]
Compound NOT metabolized | CC#CCn1c(N2CCC[C@@H](N)C2)nc2c1c(=O)n(Cc1nc(C)c3ccccc3n1)c(=O)n2C [LINAGLIPTIN]
Compound metabolized | CCOC(=O)C1=C(C)NC(C)=C(C(=O)OC)C1c1cccc([N+](=O)[O-])c1 (stereo not drawn) [NITRENDIPINE]

Conditions: human gut metagenome, 24 h, 2 µM
Remark: another data set of the same source

Bacterial Biotransformation | Compound
Compound metabolized | CCCCC(=O)O[C@]1(C(=O)CO)[C@@H](C)C[C@H]2[C@@H]3CCC4=CC(=O)C=C[C@]4(C)[C@@]3(F)[C@@H](O)C[C@@]21C [BETAMETHASONE VALERATE]
Compound NOT metabolized | CC#CCn1c(N2CCC[C@@H](N)C2)nc2c1c(=O)n(Cc1nc(C)c3ccccc3n1)c(=O)n2C [LINAGLIPTIN]
Compound metabolized | CCOC(=O)C1=C(C)NC(C)=C(C(=O)OC)C1c1cccc([N+](=O)[O-])c1 (stereo not drawn) [NITRENDIPINE]

Conditions: human gut metagenome, 24 h, 2 µM
Remark: another data set of the same source

Bacterial Biotransformation | Compound
Compound metabolized | CCCCC(=O)O[C@]1(C(=O)CO)[C@@H](C)C[C@H]2[C@@H]3CCC4=CC(=O)C=C[C@]4(C)[C@@]3(F)[C@@H](O)C[C@@]21C [BETAMETHASONE VALERATE]
Compound NOT metabolized | CC#CCn1c(N2CCC[C@@H](N)C2)nc2c1c(=O)n(Cc1nc(C)c3ccccc3n1)c(=O)n2C [LINAGLIPTIN]
Compound metabolized | CCOC(=O)C1=C(C)NC(C)=C(C(=O)OC)C1c1cccc([N+](=O)[O-])c1 (stereo not drawn) [NITRENDIPINE]

Conditions: human gut metagenome, 24 h, 2 µM
Remark: another data set of the same source

Bacterial Biotransformation | Compound
Compound NOT metabolized | CCCCC(=O)O[C@]1(C(=O)CO)[C@@H](C)C[C@H]2[C@@H]3CCC4=CC(=O)C=C[C@]4(C)[C@@]3(F)[C@@H](O)C[C@@]21C [BETAMETHASONE VALERATE]
Compound NOT metabolized | CC#CCn1c(N2CCC[C@@H](N)C2)nc2c1c(=O)n(Cc1nc(C)c3ccccc3n1)c(=O)n2C [LINAGLIPTIN]
Compound metabolized | CCOC(=O)C1=C(C)NC(C)=C(C(=O)OC)C1c1cccc([N+](=O)[O-])c1 (stereo not drawn) [NITRENDIPINE]

Conditions: human gut metagenome, 24 h, 2 µM
Remark: another data set of the same source

Bacterial Biotransformation | Compound
Compound metabolized | CCCCC(=O)O[C@]1(C(=O)CO)[C@@H](C)C[C@H]2[C@@H]3CCC4=CC(=O)C=C[C@]4(C)[C@@]3(F)[C@@H](O)C[C@@]21C [BETAMETHASONE VALERATE]
Compound NOT metabolized | CC#CCn1c(N2CCC[C@@H](N)C2)nc2c1c(=O)n(Cc1nc(C)c3ccccc3n1)c(=O)n2C [LINAGLIPTIN]
Compound metabolized | CCOC(=O)C1=C(C)NC(C)=C(C(=O)OC)C1c1cccc([N+](=O)[O-])c1 (stereo not drawn) [NITRENDIPINE]

Conditions: human gut metagenome, 24 h, 2 µM
Remark: another data set of the same source

Bacterial Biotransformation | Compound
Compound NOT metabolized | CCCCC(=O)O[C@]1(C(=O)CO)[C@@H](C)C[C@H]2[C@@H]3CCC4=CC(=O)C=C[C@]4(C)[C@@]3(F)[C@@H](O)C[C@@]21C [BETAMETHASONE VALERATE]
Compound NOT metabolized | CC#CCn1c(N2CCC[C@@H](N)C2)nc2c1c(=O)n(Cc1nc(C)c3ccccc3n1)c(=O)n2C [LINAGLIPTIN]

Conditions: human gut metagenome, 24 h, 2 µM
Remark: another data set of the same source

Bacterial Biotransformation | Compound
Compound NOT metabolized | CCCCC(=O)O[C@]1(C(=O)CO)[C@@H](C)C[C@H]2[C@@H]3CCC4=CC(=O)C=C[C@]4(C)[C@@]3(F)[C@@H](O)C[C@@]21C [BETAMETHASONE VALERATE]
Compound NOT metabolized | CC#CCn1c(N2CCC[C@@H](N)C2)nc2c1c(=O)n(Cc1nc(C)c3ccccc3n1)c(=O)n2C [LINAGLIPTIN]
Compound metabolized | CCOC(=O)C1=C(C)NC(C)=C(C(=O)OC)C1c1cccc([N+](=O)[O-])c1 (stereo not drawn) [NITRENDIPINE]
